According to patent US20180119156A1, “[…] GENE EXPRESSION” (priority 2015, published 2018):
pKd: −log10 of the molar value.

How the values were obtained:
[1] = tested on: E. coli DH10B-T7His-Theo4; type: cell-based, Escherichia coli
Description: The performance of the cascade was measured using GFPuv expression (FIG. 12). Specifically, the theophylline dependency of the cascade at 0.8 mg/L rhamnose was measured. […] Additionally, expression of GFPuv over a wide range of rhamnose and theophylline concentrations was determined.
E. coli DH10B-T7His-Theo4 was grown overnight at 37° C. in LB medium containing kanamycin (50 mg/L). A 96 well 2 ml culture plate (Greiner) was filled with a concentrate of theophylline and L-rhamnose. […] Culture plates were incubated at 37° C. overnight under continuous shaking. The bacteria were centrifuged for 10 minutes at 4700 rpm in a Sorval Legend centrifuge. The supernatant was cleared and the cell pellet was resuspended in 500 μL 50 mM Tris-HCl pH 7.5. After resuspension, the plates were incubated at 37° C. for 1 hour to allow maturation of the GFPuv. 100 μL of suspension was pipetted into a 98 well black plate with clear bottom (Perkin Elmer) and measured with a Synergy MX plate reader. The cell density was measured by scattering at 600 nm and the fluorescence was measured at an excitation wavelength of 385 nm with a width of 20 nm and an emission wavelength of 508 nm with 20 nm width with a gain of 50. The background fluorescence and background scattering were subtracted and the fluorescence was divided by the scattering at 600 nm. The background fluorescence of bacteria without either GFPuv or T7His polymerase was negligible, but the fluorescence caused by other components than GFPuv in the bacteria was still subtracted.
The theophylline dependency of the cascade in response to differing concentrations of rhamnose was measured. E. coli DH10B-T7His-Theo4 diluted from an overnight culture were grown overnight in a 2 mL culture plate containing a variable amount of L-rhamnose and theophylline. The medium was cleared and the bacteria were resuspended in 50 mM Tris-HCl pH 7.5. The fluorescence was measured at an excitation wavelength of 385 nm and an emission wavelength of 508 nm. The cell density was measured by scattering at 600 nm.

[2] = tested on: thyA knockout strain of E. coli; conditions: single theophylline-dependent intron, background subtracted; cited from earlier work
[3] = tested on: thyA-deficient E. coli DH10B strain
Description: A comparison of a single intron construct with a construct of the present invention featuring a tandem self-splicing intron was made (FIG. 9). Growth (OD600) was plotted against time (minutes) in the presence (1 mM) and absence (0 mM) of theophylline for the construct designed by Thompson et al. (Thompson et al. 2002 BMC Biotechnol. 2: 21) utilising one theophylline-dependent intron in thyA, in a thyA-deficient E. coli DH10B strain (FIG. 9A). […] Growth was measured in the same way for a construct containing an E. coli thyA gene interrupted by two theophylline-dependent introns, which was transformed into a thyA-deficient E. coli DH10B strain. The overnight growth was plotted against the theophylline concentration in the medium (FIG. 9B).

C[C@H](O)[C@H](O)[C@@H](O)[C@@H](O)C=O [rhamnose, L-rhamnose]
background expression, % of the maximum expression ([1]; fully induced with rhamnose, theophylline absent, one intron cascade): about 7.5%

Cn1c(=O)c2[nH]cnc2n(C)c1=O [theophylline]
theophylline-induced growth, % of the parental intron [2]: approximately 40%
concentration above which theophylline became slightly toxic ([3]; overnight growth, E. coli DH10B thyA-deficient): Above 1 mM
pKd ([3]; read-out: apparent kd value, Michaelis-Menten-like profile of overnight growth vs theophylline concentration, two introns in thyA): 3.70 to 4.00
fold-change in GFPuv fluorescence caused by theophylline ([1]; at any L-rhamnose concentration): around 15 times
signal of fully induced system relative to strong TacI promoter (pSC034f) ([1]; fully induced with rhamnose and theophylline): 5-6 times
